Test systems include SK-OV-3 ovarian; OVCAR-8 ovarian; A498 renal; NCI-H226 lung; SF-295 CNS; LOX IMVI melanoma; HCC-2998 colon; COLO 205 colon; UACC-257 melanoma; SNB-75 CNS.
Assay in all cases: inhibition of tumour cell growth, NCI panel, 48 h

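All cell lines were grown in 96-well plates and treated with compound for 48 hours. GI50 = concentration required for 50% inhibition of growth. Definition used: TGI = concentration required for complete inhibition of growth.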

Consider `COc1cc(C2CC(c3cccc(Nc4ccnc5cc(Cl)ccc45)c3)=NN2c2ccc(Cl)cc2)cc(OC)c1OC` (centres undefined), for which the GI50 in the assay on SK-OV-3 ovarian is 17.3 µM; in the assay on OVCAR-8 ovarian, 5.36 µM; with A498 renal, 4.65 µM; in the assay on NCI-H226 lung, 8.45 µM; with SF-295 CNS, 1.71 µM; in the assay with LOX IMVI melanoma it was 0.647 µM. In addition, the GI50 in the assay on HCC-2998 colon was 3.14 µM; in the assay on COLO 205 colon, 3.13 µM; with UACC-257 melanoma it was 3.45 µM; in the assay with SNB-75 CNS, 2.22 µM. The TGI in the assay on SK-OV-3 ovarian is more than 100 µM; in the assay on OVCAR-8 ovarian, more than 100 µM; with A498 renal, 91.5 µM; in the assay on NCI-H226 lung, more than 100 µM; in the assay with SF-295 CNS it was 33.8 µM; in the assay on LOX IMVI melanoma, more than 100 µM. Also, the TGI is 22.1 µM in the assay with HCC-2998 colon, 24.5 µM with COLO 205 colon, more than 100 µM in the assay with UACC-257 melanoma and more than 100 µM with SNB-75 CNS.

Regarding `CCOC(=O)C(=O)Nc1nc2c(OCC)cccc2s1`, the TGI with SK-OV-3 ovarian, in the assay on OVCAR-8 ovarian, with A498 renal, in the assay on NCI-H226 lung, in the assay on SF-295 CNS and in the assay on LOX IMVI melanoma was more than 100 µM each time. For the same molecule, the TGI in the assay with HCC-2998 colon, with COLO 205 colon, in the assay with UACC-257 melanoma and in the assay on SNB-75 CNS was more than 100 µM throughout.

On to `CN1CN(C2OC(CO)C(O)C2O)c2nc(N)[nH]c(=O)c21` (centres undefined), for which the TGI with SK-OV-3 ovarian, in the assay on OVCAR-8 ovarian, in the assay on A498 renal, with NCI-H226 lung, in the assay with SF-295 CNS and in the assay with HCC-2998 colon was more than 100 µM throughout. For the same molecule, the TGI in the assay with COLO 205 colon, in the assay on UACC-257 melanoma and in the assay on SNB-75 CNS was more than 100 µM throughout.

Regarding `Cc1cccc(-n2c(N)c(-c3nc4ccccc4[nH]3)sc2=S)c1`, the TGI with SK-OV-3 ovarian was 91.7 µM; in the assay with OVCAR-8 ovarian it was 72 µM; in the assay on A498 renal, more than 100 µM; with NCI-H226 lung, 73.9 µM; in the assay with SF-295 CNS, 68.1 µM; in the assay on LOX IMVI melanoma, 58 µM. Moreover, the figures for the TGI in the assay with COLO 205 colon, in the assay with UACC-257 melanoma and in the assay with SNB-75 CNS were 51.8 µM, 67.1 µM and more than 100 µM, respectively.

On to `COc1cc(OC)c(C(=O)c2cccs2)cc1N`, for which the TGI in the assay with SK-OV-3 ovarian, in the assay with OVCAR-8 ovarian, in the assay on A498 renal, in the assay with SF-295 CNS, with LOX IMVI melanoma and with HCC-2998 colon was more than 100 µM in each case. Also, the TGI in the assay on COLO 205 colon, with UACC-257 melanoma and with SNB-75 CNS was more than 100 µM each time.

On to `CC(=O)OC1CCC2(C)C(CCC3C2CC(=O)C2(C)C3CC(N3CC3)C2C(C)=O)C1` (centres undefined), for which the TGI is 46.7 µM in the assay on OVCAR-8 ovarian; 53.9 µM in the assay with A498 renal; 37.8 µM in the assay on NCI-H226 lung; 51 µM with SF-295 CNS; 29.3 µM in the assay with LOX IMVI melanoma; 32 µM in the assay with HCC-2998 colon. Also, the figures for the TGI in the assay with COLO 205 colon, in the assay with UACC-257 melanoma and in the assay on SNB-75 CNS were 35.7 µM, 32.5 µM and 42.6 µM, respectively.

In the case of `CC(=O)/C(=C/c1ccccc1)C(=O)CC(C)C`, the GI50 in the assay with SK-OV-3 ovarian is 31.8 µM; in the assay with OVCAR-8 ovarian, 17.6 µM; in the assay with A498 renal, 19.4 µM; with NCI-H226 lung it was 25.1 µM; in the assay with LOX IMVI melanoma it was 1.85 µM; with HCC-2998 colon, 9.49 µM. The GI50 with COLO 205 colon was 16.9 µM; in the assay with UACC-257 melanoma it was 13.9 µM; in the assay with SNB-75 CNS, 21.2 µM. The TGI in the assay on SK-OV-3 ovarian was 99 µM; with OVCAR-8 ovarian, 53 µM; with A498 renal it was 38.8 µM; in the assay on NCI-H226 lung, 71.4 µM; in the assay with LOX IMVI melanoma, 4.02 µM; with HCC-2998 colon it was 21.7 µM. The TGI amounted to 35.5 µM with COLO 205 colon, 28.9 µM in the assay with UACC-257 melanoma and 42.4 µM with SNB-75 CNS.

For `CCC[CH2][Sn]([CH2]CCC)([O]c1cccc2cccnc12)[O]c1cccc2cccnc12`, the GI50 in the assay on SK-OV-3 ovarian was 1.91 µM; in the assay on OVCAR-8 ovarian, 0.263 µM; in the assay on A498 renal it was 1.75 µM; with SF-295 CNS, 0.247 µM; in the assay on LOX IMVI melanoma, 0.162 µM; with HCC-2998 colon, 0.36 µM. Besides, the GI50 in the assay with COLO 205 colon is 0.482 µM; in the assay on SNB-75 CNS, 0.156 µM. Further, the TGI in the assay with SK-OV-3 ovarian amounted to 3.33 µM; in the assay on OVCAR-8 ovarian it was 0.945 µM; with A498 renal it was 3.31 µM; with SF-295 CNS it was 0.612 µM; in the assay on LOX IMVI melanoma, 0.313 µM; in the assay on HCC-2998 colon it was 0.842 µM. Moreover, the TGI with COLO 205 colon came to 1.7 µM; in the assay on SNB-75 CNS, 0.563 µM.

`CCC(=O)N1C(=O)OCC1C(C)C` (centres undefined): the TGI with SK-OV-3 ovarian, in the assay with OVCAR-8 ovarian, in the assay with A498 renal, in the assay with SF-295 CNS, in the assay with LOX IMVI melanoma and with HCC-2998 colon was more than 100 µM each time. The TGI in the assay on COLO 205 colon, with UACC-257 melanoma and in the assay with SNB-75 CNS was more than 100 µM in each case.

For `CCCc1n(Cc2ccc3ccccc3c2)cc[n+]1Cc1ccc2ccccc2c1`, the GI50 in the assay on SK-OV-3 ovarian was 1.74 µM; in the assay with A498 renal, 0.938 µM; with NCI-H226 lung it was 1.31 µM; with SF-295 CNS, 1.44 µM; in the assay with LOX IMVI melanoma, 0.926 µM; in the assay with HCC-2998 colon, 0.716 µM. Besides, the GI50 was 0.458 µM with COLO 205 colon, 0.466 µM in the assay with UACC-257 melanoma and 0.514 µM in the assay on SNB-75 CNS. For the same molecule, the TGI in the assay with SK-OV-3 ovarian came to 4.95 µM; in the assay on A498 renal, 3.78 µM; in the assay with NCI-H226 lung, 3.92 µM; in the assay on SF-295 CNS, 3.34 µM; with LOX IMVI melanoma, 2.19 µM; with HCC-2998 colon, 2.07 µM. The TGI in the assay with COLO 205 colon came out at 1.72 µM; with UACC-257 melanoma, 1.76 µM; in the assay with SNB-75 CNS, 3.04 µM.

For the molecule `CC1(C)S[C@@H]2[C@H](N3C(=O)c4ccccc4C3=O)CN2[C@H]1NC(=O)N[C@@H]1N2C[C@@H](N3C(=O)c4ccccc4C3=O)[C@H]2SC1(C)C`, the TGI in the assay with SK-OV-3 ovarian, with OVCAR-8 ovarian, in the assay on A498 renal, in the assay on NCI-H226 lung, in the assay on SF-295 CNS and in the assay on LOX IMVI melanoma was more than 100 µM throughout. Besides, the TGI in the assay on HCC-2998 colon, with COLO 205 colon and in the assay on SNB-75 CNS was more than 100 µM each time.

`Cc1n[nH]c(=S)n(C)c1=S`: the TGI with SK-OV-3 ovarian, in the assay with OVCAR-8 ovarian, in the assay on A498 renal, in the assay on NCI-H226 lung, in the assay on SF-295 CNS and with LOX IMVI melanoma was more than 100 µM throughout. Further, the TGI in the assay on COLO 205 colon and in the assay with SNB-75 CNS was more than 100 µM each time.

For the origin of these results see PubChem BioAssay (NCI).
